Test results reported in patent US12391646B2, “Using adiponectin receptor agonists to treat inflammation and bone diseases in diabetes” (Trustees of Tufts College, priority 2020, dated 2025).

How the values were obtained:
[1] = system: Raw264.7 cells; assay: CCK-8 cytotoxicity assay, 24 hours; assay type: cell-based; details: at 40 μM or lower concentrations
Description: (§1) FIG. 1 Characterization of anti-inflammatory properties of APR-like compounds. (a) Raw264.7 cells were pretreated with APR (20 μM) or new compounds 1 to 10 (5 μM) for 24 h followed by incubation with LPS (100 ng/mL) for an additional 6 h. IL-6 and IL-1β mRNA expression levels were evaluated by qPCR and normalized with GAPDH mRNA level. (b) Raw264.7 cells were pretreated with different doses of AdipoAI for 24 h followed by incubation with LPS (100 ng/mL) for additional 6 h to evaluate dose-dependency of AdipoAI in inhibiting IL-6 and IL-1β mRNA expression levels by qRT-PCR and normalized with GAPDH mRNA level. (c) Evaluation of cytotoxicity of APR, AdipoAI and compound 5 by CCK8 assay in Raw264.7 cells treated for 24 hours. (d) BMMs were pretreated with APR (20 μM), AdipoAI (5 μM) or compound 5 (5 μM) for 24 h followed by incubation with LPS (100 ng/ml) for additional 6 h for the measurement of IL-6 and IL-1β mRNA expression levels by qRT-PCR and normalized with GAPDH mRNA level. Data were expressed as the mean±SEM at five biological independent experiments. One-way ANOVA test for multiple-group comparisons, *P<0.05, significant differences between each indicated group.
Raw264.7 cells were seeded at 2×10^3 cells/well in 96-well plates for 16 hours and then serum-starved for 6 hours. Cells were maintained in DMEM in the presence of different concentrations of APR (AdipoGen Life Sciences, San Diego, CA, USA) and compounds for 24 hours. […] The detailed group assignment is shown in the individual figure legends.

[2] = system: LPS-stimulated RAW 264.7 macrophages; assay: qPCR of cytokine mRNA in LPS-stimulated RAW 264.7 macrophages; assay type: cell-based; details: for expression of proinflammatory cytokines such as IL-6 and IL-1B: LPS-induced macrophages
Description: as §1
RAW 264.7 macrophage cell line was purchased from ATCC (Manassas, VA, USA) and maintained in DMEM (Gibco, Life Technologies, Carlsbad, CA, USA) supplemented with 10% (v.v-1) FBS (Gibco, Life Technologies) and 1% (v.v-1) penicillin/streptomycin (Gibco, Life Technologies). The cells were routinely cultured in an incubator at 37° C. in a humidified atmosphere of 5% CO2.
Total RNA of cells was extracted using Quick-RNA Miniprep Kit (ZYMO Research, Irvine, CA, USA) and total RNA from mouse tissues was prepared with TriZol reagent (Life Technologies) according to the manufacturer's instructions followed by qRT-PCR assays as described previously (L. Zhang et al., 2014). 1 μg of total RNA was used for reverse transcription using the M-MLV Reverse Transcriptase (Thermo Scientific, Waltham, MA, USA) according to the manufacturer's protocol using PowerUp SYBR Green Master Mix (Thermo Scientific) on a Bio-Rad iQ5 thermal cycler (Bio-Rad Laboratories, Hercules, CA, USA). Differences in expression were evaluated by the comparative cycle threshold method using GAPDH or β-actin as a control. The primer sequences used for the qRT-PCR experiments are listed in supplemental Table 1.
Macrophages were seeded at a density of 5×10^5 cells/well in 12-well plates. After overnight incubation, the cells were transfected for 24 h with siRNAs targeting specific genes or scrambled control siRNAs using HiPerFect Transfection Reagent (Qiagen, Hilden, Germany) according to the manufacturer's guidelines. Gene silencing efficiency was monitored by qPCR or Western blot analysis. The siRNA duplexes used in this study were chemically synthesized by Thermo Scientific.

| Compound | cytotoxic effects (CCK-8) [1] | expression of proinflammatory cytokines such as IL-6 and IL-1B [2] | dependence of inhibition of proinflammatory cytokine mRNA on AdipoRs and APPLs (siRNA) ([2]; Raw264.7 cells transfected with siRNA) | inhibition of IL-6 and IL1-β mRNA expression ([2]; compounds at 5 μM vs APR at 20 μM, 24 h pretreatment, then LPS 100 ng/mL 6 h) | anti-inflammatory efficacy relative to APR ([2]; in macrophages, estimated) | LPS-stimulated IL-6 and IL-1β mRNA expression, dose-dependency ([2]; increasing concentrations, 24 h, then LPS 100 ng/mL 6 h) |
| --- | --- | --- | --- | --- | --- | --- |
| O=C(COc1ccc(C(=O)c2ccccc2)cc1)NC1CCN(Cc2ccccc2)CC1 [AdipoRon, reference compound] | neither of the 3 small molecules mediated significant cytotoxic effects | inhibited expression of proinflammatory cytokines such as IL-6 and IL-1B |  |  |  |  |
| COc1ccc(CN2CCC(NC(=O)COc3ccc(C(=O)c4ccc(Cl)cc4)cc3)CC2)cc1 [Compound 3] | neither of the 3 small molecules mediated significant cytotoxic effects | inhibited expression of proinflammatory cytokines such as IL-6 and IL-1B | prevented by AdipoR1 and APPL1 suppression, but not AdipoR2 or APPL2 | stronger inhibitory effects than APR | about 8 times | decreased LPS-stimulated IL-6 and IL-1β mRNA expression in a dose-dependent fashion |
